Assay results taken from US7560477B2, “Compounds active in sphingosine 1-phosphate signaling” (University of Virginia Patent Foundation, priority 2002, dated 2009).
Blank lines part the entries; values can stand above or below the molecule they belong to.

Experiments:
Type in all cases: biochemical
hS1P3 = biological target: T1, hS1P3 (Homo sapiens, UniProt Q99500); assay: [γ-35S]GTP binding, HEK293T cell membranes with S1P3 receptor
T1 construct: expressed in transfected cells; host or cells: HEK293T cells, transient transfection
Description: (§1) Human or mouse S1P5 DNA was mixed with an equal amount of DNA encoding a rat Gi2R protein as well as DNAs encoding cow β1 and γ2 proteins and used to transfect monolayers of HEK293T cells using the calcium phosphate precipitate method. After 60 h, cells were harvested, and microsomes were prepared, aliquoted, and stored at −70° C. until use.
(§2) After incubating for 30 min at 30° C., bound radionuclide was separated from free by filtration through Whatman GF/C paper using a Brandel Cell Harvester (Gaithersburg, Md.).
(§3) Assay of cAMP accumulation was performed as described previously (See Im et al., J. Biol. Chem. 275, 14281-14286 (2000), the disclosure of which is incorporated herein). Assays were conducted on populations of 5×10^5 cells stimulated with 1 uM forskolin in the presence of the phosphodiesterase inhibitor […] (IBMX, 1 mM) for 15 min. cAMP was measured by automated radioimmunoassay. The GTPγS studies were performed using zebrafish S1P1 overexpressed rat RH-7777 and human hS1P1, hS1P2, hS1P3 and hS1P5 overexpressed human HEK293 cells.
(§4) An additional series of compounds was tested using the GTPCS binding assay described in Example 2 and in Im et al., J. Biol. Chem. 275, 14281-14286 (2000), the disclosure of which is incorporated herein).

hS1P1 = biological target: T2, hS1P1 (Homo sapiens, UniProt P21453); assay: [γ-35S]GTP binding, HEK293T cell membranes with S1P1 receptor
T2 construct: expressed in transfected cells; host or cells: HEK293T cells, transient transfection
Description: as §1, §2, §3, §4

[1] = system: Recombinant S1P Receptors; assay: [γ-35S]GTP binding at recombinant S1P receptors (statements covering all receptors tested); conditions: at each receptor
Description: The same results were obtained regardless of whether the recombinant receptor used exogenous G proteins (HEK293T cells) or endogenous G proteins (RH7777 cells). […] The Sf9 cell and HEK293T cell membranes gave similar results. Furthermore, the activities measured in the broken cell assay predicted the responses seen in whole cell assays.
as §2, §3

T1 sequence (Q99500 whole entry): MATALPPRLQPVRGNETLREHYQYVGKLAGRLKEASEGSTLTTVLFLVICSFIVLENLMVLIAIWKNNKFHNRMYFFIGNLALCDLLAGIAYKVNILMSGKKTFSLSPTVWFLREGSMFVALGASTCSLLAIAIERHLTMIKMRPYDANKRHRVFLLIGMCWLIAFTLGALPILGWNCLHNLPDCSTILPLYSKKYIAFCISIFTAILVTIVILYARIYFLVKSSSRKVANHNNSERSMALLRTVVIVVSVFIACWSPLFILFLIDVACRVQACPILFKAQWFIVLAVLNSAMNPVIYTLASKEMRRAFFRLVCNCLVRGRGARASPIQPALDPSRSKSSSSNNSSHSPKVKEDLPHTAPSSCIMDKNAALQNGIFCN
T2 sequence (P21453 whole entry): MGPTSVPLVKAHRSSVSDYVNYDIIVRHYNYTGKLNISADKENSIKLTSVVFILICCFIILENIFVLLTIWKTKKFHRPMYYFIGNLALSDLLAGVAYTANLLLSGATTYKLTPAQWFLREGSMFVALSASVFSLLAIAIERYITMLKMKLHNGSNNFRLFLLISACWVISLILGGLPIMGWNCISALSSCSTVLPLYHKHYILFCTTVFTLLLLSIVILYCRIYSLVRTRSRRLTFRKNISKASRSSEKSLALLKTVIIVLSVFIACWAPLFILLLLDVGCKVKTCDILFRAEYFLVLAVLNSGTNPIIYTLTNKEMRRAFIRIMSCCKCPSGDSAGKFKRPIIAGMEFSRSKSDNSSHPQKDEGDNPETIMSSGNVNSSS

potency compared with S1P at human S1P3 receptor (hS1P3; result in words): approached the potency of S1P | potency compared with S1P at human S1P1 receptor (hS1P1; result in words): approached the potency of S1P
SMILES: CCCCCCCCCCCCCCNC(=O)[C@H](N)COP(=O)(O)O [VPC22135]

SMILES: CCCCCCCCc1cccc(NC(=O)[C@H](N)COP(=O)(O)O)c1 [VPC23019]
type of activity at the S1P3 receptor (inverse agonism / agonism) (hS1P3; result in words): inverse agonists | antagonism at S1P1 (hS1P1; result in words, competition with S1P): antagonism

SMILES: CCCCCCCCc1ccccc1NC(=O)[C@H](N)COP(=O)(O)O [VPC23089]
type of activity at the S1P3 receptor (inverse agonism / agonism) (hS1P3; result in words): inverse agonists

SMILES: CCCCCCCCCc1cccc(NC(=O)[C@H](N)COP(=O)(O)O)c1 [VPC23079]
type of activity at the S1P3 receptor (inverse agonism / agonism) (hS1P3; result in words): agonism

less potent than enantiomer VPC22135 at S1P3 receptor (hS1P3): more than 1 log order | less potent than enantiomer VPC22135 at S1P1 receptor (hS1P1): more than 1 log order
SMILES: CCCCCCCCCCCCCCOC(=O)[C@@H](N)COP(=O)(O)O [VPC22053]

increase of GTPγS binding [1]: 2-5 fold
SMILES: CCCCCCCCCCCCC/C=C/[C@@H](O)[C@@H](N)COP(=O)(O)O [Compound S1P, Sphingosine-1-phosphate]

SMILES: CCCCCCCCCCc1cccc(NC(=O)[C@H](N)COP(=O)(O)O)c1 [VPC23069]
type of activity at the S1P3 receptor (inverse agonism / agonism) (hS1P3; result in words): agonism

SMILES: CCCCCCc1cccc(NC(=O)[C@H](N)COP(=O)(O)O)c1 [VPC23031]
type of activity at the S1P3 receptor (inverse agonism / agonism) (hS1P3; result in words): inverse agonists
